“And” between values parts separate entries of the source, which are not always exact repeats. Identical values can stand only once. Like-named read-outs stand apart in the source and are kept apart here.
Key:
[1] = Single i.v. dose toxicity: necropsy observations and organ weights; format: in vivo, Sprague-Dawley rats
Experimental: (§1) Body weight and food consumption was measured daily for 14 days. On day 15, urine was collected on all surviving animals. The animals were euthanized and bled via cardiac puncture, and blood was collected for analysis. Tissues were collected, weighed, evaluated for gross abnormalities, and stored in 10% neutral-buffered formalin.
(§2) On day 15, urine was collected on all surviving animals for urinalysis. The animals were euthanized and bled via cardiac puncture. Blood was collected for hematology, clinical chemistry, and coagulation analysis. Tissues were collected, weighed, and stored in 10% neutral-buffered formalin for possible future analysis.

nAChR α4/β2 = biological target: T1, nAChR α4/β2 (Homo sapiens, UniProt P17787+P43681); format: cell-based; conditions: for Normalized % Potentiation: with 10 μM Ach, 100% = 10 μM Ach+3 μM epibatidine, 0% = 10 μM Ach
T1 construct: host or cells: HEK293 cells, transient
Experimental: (§3) Briefly, cells were incubated with […] dye for 30 min at 37° C.

nAChR α3/β4 = nAChR α3/β4 (Homo sapiens, UniProt P30926+P32297); format: cell-based
Experimental: as §3

nAChR α7 = biological target: T2, nAChR α7 (Homo sapiens, UniProt P36544); test: nAChR α7 channel agonist assay (FLIPR); format: cell-based; conditions: in presence of PNU-120596; maximal stimulation not achieved
T2 construct: host or cells: CHO cells coexpressing RIC-3
Experimental: as §3
Therefore, the assay of agonist activity for either Ach or for the test articles was conducted in the presence of the positive allosteric modulator.

[2] = Single i.v. dose toxicity: body weights and food consumption; format: in vivo, Sprague-Dawley rats; conditions: for Average Daily Food Consumption per Rat: Nicotine 0.75 mg/kg; for Mean weight increase by day 14: single i.v. 0.75 mg/kg nicotine
Experimental: as §1
All animals were observed daily.

[3] = Single i.v. dose toxicity: coagulation (aPTT, PT); format: in vivo, Sprague-Dawley rats; conditions: for ACTIVE PARTIAL THROMBOPLASTIN TIME: nicotine 0.75 mg/kg single i.v. dose, tartrate
Description: as §2

NFκB = NFκB luciferase assay (inhibition of TNFα-induced NFκB activity); format: cell-based, Human; conditions: HEK293 with NFκB luciferase reporter challenged with TNFα
Experimental: The smokeless tobacco used in these experiments was plain long-leaf Copenhagen tobacco purchased from a local vendor. Crude extract was extracted with methanol and water and clarified by centrifugation and filtration. The alkaloid extract was prepared from sodium hydroxide and methanol extraction, organic phase separation and purification. All treatment samples were prepared as a function of weight (μg/ml), and all samples were diluted in DMSO.
Human […] kidney cells (HEK293) transfected with an NFκB luciferase reporter were challenged with TNFα for three hours, then samples were applied to the challenged cells.
The effect of S-(−)-anatabine on TNFα-induced NFκB activity in vitro was determined as described in Example 1.

[4] = Group E: Nicotine 0.75 mg/kg (Females), individual animals, tartrate
[5] = Group E: Nicotine 0.75 g/kg Males), individual animals, tartrate
[6] = female animals, Nicotine 0.75 mg/kg, n = 3
[7] = male rats, single i.v. 0.75 mg/kg nicotine, day 15

T1 sequence (P43681 29-627): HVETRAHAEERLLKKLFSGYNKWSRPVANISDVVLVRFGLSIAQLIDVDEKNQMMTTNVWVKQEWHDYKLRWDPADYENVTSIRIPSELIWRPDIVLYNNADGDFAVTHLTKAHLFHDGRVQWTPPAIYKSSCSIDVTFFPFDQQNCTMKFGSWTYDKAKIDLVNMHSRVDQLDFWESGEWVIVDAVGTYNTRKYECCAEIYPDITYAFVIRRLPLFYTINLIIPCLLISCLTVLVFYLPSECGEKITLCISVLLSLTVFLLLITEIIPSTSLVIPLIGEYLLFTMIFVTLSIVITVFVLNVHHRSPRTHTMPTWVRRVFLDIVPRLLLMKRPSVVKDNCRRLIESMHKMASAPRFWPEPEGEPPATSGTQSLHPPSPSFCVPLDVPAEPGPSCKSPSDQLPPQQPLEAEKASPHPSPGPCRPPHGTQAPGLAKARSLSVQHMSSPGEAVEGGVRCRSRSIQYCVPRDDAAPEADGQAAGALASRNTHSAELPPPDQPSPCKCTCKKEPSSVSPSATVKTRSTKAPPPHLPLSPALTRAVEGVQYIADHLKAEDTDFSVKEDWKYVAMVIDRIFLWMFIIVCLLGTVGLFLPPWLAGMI
T1 sequence (P17787 26-502): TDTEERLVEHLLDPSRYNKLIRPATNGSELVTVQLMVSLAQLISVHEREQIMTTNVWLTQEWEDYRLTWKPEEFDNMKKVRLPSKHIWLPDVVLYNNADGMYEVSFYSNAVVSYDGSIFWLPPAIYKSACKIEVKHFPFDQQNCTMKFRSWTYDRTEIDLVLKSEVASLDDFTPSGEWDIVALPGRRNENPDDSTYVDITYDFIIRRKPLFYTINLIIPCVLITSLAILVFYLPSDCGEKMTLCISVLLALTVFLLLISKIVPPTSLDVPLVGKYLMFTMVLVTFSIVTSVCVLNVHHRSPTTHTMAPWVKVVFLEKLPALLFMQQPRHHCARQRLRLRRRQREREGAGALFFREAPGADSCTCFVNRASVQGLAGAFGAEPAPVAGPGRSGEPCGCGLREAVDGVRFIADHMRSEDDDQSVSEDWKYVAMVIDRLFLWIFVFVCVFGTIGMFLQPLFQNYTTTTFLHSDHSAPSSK
Sequence of nAChR α3/β4 (P32297 32-505): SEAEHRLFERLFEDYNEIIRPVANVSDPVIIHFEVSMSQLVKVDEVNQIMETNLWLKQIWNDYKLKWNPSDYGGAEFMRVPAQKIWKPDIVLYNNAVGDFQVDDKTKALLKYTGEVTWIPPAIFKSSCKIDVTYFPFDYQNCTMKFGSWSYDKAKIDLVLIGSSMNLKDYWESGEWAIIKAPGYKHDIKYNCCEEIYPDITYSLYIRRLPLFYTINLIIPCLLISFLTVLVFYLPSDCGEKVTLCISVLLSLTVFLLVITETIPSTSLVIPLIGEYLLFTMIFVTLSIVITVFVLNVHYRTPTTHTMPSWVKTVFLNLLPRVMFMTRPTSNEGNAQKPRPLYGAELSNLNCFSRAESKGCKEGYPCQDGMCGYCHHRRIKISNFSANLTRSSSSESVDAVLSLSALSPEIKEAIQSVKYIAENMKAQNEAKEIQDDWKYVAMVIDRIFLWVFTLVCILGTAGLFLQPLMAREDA
Sequence of nAChR α3/β4 (P30926 22-498): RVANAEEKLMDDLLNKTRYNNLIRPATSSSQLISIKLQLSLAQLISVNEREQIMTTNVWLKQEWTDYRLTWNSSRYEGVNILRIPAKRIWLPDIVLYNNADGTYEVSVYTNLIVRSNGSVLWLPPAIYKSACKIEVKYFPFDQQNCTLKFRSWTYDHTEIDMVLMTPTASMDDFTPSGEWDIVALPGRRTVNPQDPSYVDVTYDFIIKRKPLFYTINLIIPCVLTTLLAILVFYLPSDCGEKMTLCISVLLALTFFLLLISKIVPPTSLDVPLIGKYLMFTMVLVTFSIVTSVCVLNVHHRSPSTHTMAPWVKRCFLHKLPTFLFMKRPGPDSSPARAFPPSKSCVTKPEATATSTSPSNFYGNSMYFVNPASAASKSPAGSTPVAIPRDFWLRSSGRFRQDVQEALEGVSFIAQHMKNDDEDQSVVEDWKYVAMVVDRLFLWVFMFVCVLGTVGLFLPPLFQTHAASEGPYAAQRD
T2 sequence (P36544 23-502): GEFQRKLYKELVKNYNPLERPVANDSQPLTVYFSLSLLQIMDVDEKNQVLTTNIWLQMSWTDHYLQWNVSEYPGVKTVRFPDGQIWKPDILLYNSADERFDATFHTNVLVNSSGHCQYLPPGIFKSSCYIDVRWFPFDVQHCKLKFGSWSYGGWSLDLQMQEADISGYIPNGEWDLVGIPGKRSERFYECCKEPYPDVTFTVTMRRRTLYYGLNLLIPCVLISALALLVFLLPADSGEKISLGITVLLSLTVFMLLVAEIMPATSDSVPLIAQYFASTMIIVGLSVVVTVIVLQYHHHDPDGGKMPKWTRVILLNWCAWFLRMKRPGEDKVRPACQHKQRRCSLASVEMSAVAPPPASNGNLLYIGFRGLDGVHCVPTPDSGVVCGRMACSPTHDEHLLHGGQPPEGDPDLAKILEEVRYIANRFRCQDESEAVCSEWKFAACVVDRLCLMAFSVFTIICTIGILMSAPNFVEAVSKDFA

CN1CCCC1c1cccnc1.O=C(O)C(O)C(O)C(=O)O (single isomer, unassigned; (-)) [Nicotine, (−) Nicotine hydrogen tartrate, reference compound]
Tissue Collection Weights: Heart [1, 4]: 0.83 g
Tissue Collection Weights: Lungs [1, 4]: 1.20 g
Tissue Collection Weights: Ovaries/uterus [1, 4]: 0.92 g
Tissue Collection Weights: Small intestine [1, 4]: 0.41 g and 0.40 g and 0.28 g
Tissue Collection Weights: Spleen [1, 4]: 0.46 g (2×) and 0.76 g
Tissue Collection Weights: Thymus [1, 4]: 0.54 g and 0.48 g (2×)
Tissue Collection Weights: Brain [1, 5]: 1.90 g
Tissue Collection Weights: Heart [1, 5]: 1.20 g
Tissue Collection Weights: Prostate [1, 5]: 0.41 g and 0.28 g (2×) and 0.45 g
Tissue Collection Weights: Small intestine [1, 5]: 0.71 g and 0.56 g and 0.53 g and 0.40 g
Tissue Collection Weights: Spleen [1, 5]: 0.81 g and 0.62 g and 0.78 g and 0.86 g
Tissue Collection Weights: Thymus [1, 5]: 0.54 g and 0.46 g and 0.56 g and 0.76 g
Organ Weight Brain, Mean [1, 6]: 1.86 g
Organ Weight Heart, Mean [1, 6]: 0.99 g
Organ Weight Kidneys, Mean [1, 6]: 2.31 g
Organ Weight Liver, Mean [1, 6]: 9.59 g
Organ Weight Lungs, Mean [1, 6]: 1.32 g
Organ Weight Ovaries/uteris, Mean [1, 6]: 1.28 g
Organ Weight, Small intestine (mean) [1, 6]: 0.36 g
Organ Weight, Spleen (mean) [1, 6]: 0.56 g
Organ Weight, Thymus (mean) [1, 6]: 0.50 g
Organ Weight, Prostate (mean) [1, 7]: 0.36 g
Organ Weight, Small intestine (mean) [1, 7]: 0.55 g
Organ Weight, Spleen (mean) [1, 7]: 0.77 g
Organ Weight, Thymus (mean) [1, 7]: 0.58 g
organ weights vs vehicle controls ([1]; nicotine 0.75 mg/kg, heart, liver and kidneys in males, thymus and heart in females): significantly lower than those of the corresponding vehicle controls
inhibition (nAChR α4/β2; 100 μM Ach + 0.3 μM epibatidine, not concentration-dependent, IC50s could not be determined): inhibited receptor activity
Normalized % Potentiation (nAChR α4/β2; test conc 0.3 μM): −46.00%
Normalized % Potentiation (nAChR α4/β2; test conc 1 μM): −46.34%
Normalized % Potentiation (nAChR α4/β2; test conc 3 μM): −40.54%
Normalized % Potentiation (nAChR α4/β2; test conc 10 μM): −42.16%
Normalized % Potentiation (nAChR α4/β2; test conc 30 μM): −43.70%
Normalized % Potentiation (nAChR α4/β2; test conc 100 μM): −43.40%
Normalized % Potentiation (nAChR α4/β2; test conc 300 μM): −34.56%
Normalized % Potentiation (nAChR α4/β2; test conc 1000 μM): −39.66%
potentiation (nAChR α3/β4): Neither nicotine nor anatabine potentiated
agonist activity (nAChR α7): showed agonist activity
Average Daily Food Consumption per Rat ([2]; Female, day 6, cages 1 and 2, tartrate): 20.0 grams
Average Daily Food Consumption per Rat ([2]; Males, day 8, cages 1 and 2, tartrate): 24.0 grams
day 13 B.W. ([2]; individual male rats, single i.v. 0.75 mg/kg, tartrate, 0.75 mg/kg): 330 g
B.W. day 6 ([2]; nicotine 0.75 mg/kg single i.v. dose, day 6, male rats (individual animals), tartrate): 270 g
Mean weight increase by day 14 ([2]; female rats): 40.8 g
Mean weight increase by day 14 ([2]; male rats, listed as nicotine, tartrate, 0.75 mg/kg): significantly lower than the controls
Mean weight increase by day 14 ([2]; male rats, tartrate, 0.75 mg/kg): 98.5 g
aPTT vs vehicle control ([3]; male and female rats, nicotine 0.75 mg/kg): significantly lower relative to the vehicle control group
ACTIVE PARTIAL THROMBOPLASTIN TIME ([3]; female rats, individual animals E6, E9): 15 s
ACTIVE PARTIAL THROMBOPLASTIN TIME ([3]; male rats, individual animals E1, E2, E3, E5): 15 s
Effect on TNFα-induced NFκB-mediated transcription of luciferase (NFκB): reduce TNFα-induced NFκB-mediated transcription

— US20160030407A1, “Method of Treating Inflammatory Lung Disease” (priority 2010, published 2016)
